The record followed here is patent publication US20260378560A1, “APPROACHES TO DESIGNING AND PERFORMING COMPRESSED BIOLOGICAL EXPERIMENTS AND SYSTEMS FOR IMPLEMENTING THE SAME” (EXVIVO LABS INC., priority 2023, published 2026).

Experiment [1] concerns REH. The experiment can be described thus: ATP-based luminescence cell viability (CellTiter Glo), drug response score, REH. Further details: scale not given here. The following applies: for DRS, REH, None: no compression (individual drug); for DRS from deconvolution: Target compression. The text has this: (§1) As part of a screen, a drug could be screened at different concentrations ranging from a lowest concentration to a highest concentration. In such a scenario, multiple data structures may be obtained by the screening platform 210. […] With these multiple data structures, the analysis module 218 can generate a dose-response curve that describes the magnitude of the response of the biological target, as a function of exposure to different concentrations of the drug. Further, the analysis module 218 can calculate a metric that is indicative of the response of the biological target. In the event that the biological target is one of multiple biological targets that are introduced to the pools of drugs, the metric can be used by the screening platform 210 to better understand the relative magnitude of responses. One example of a metric is drug-response score (“DRS”). DRS can be calculated as a continuous function of multiple parameters of the non-linear dose-response curve, including the slope at the half-maximal effective concentration (also called “EC50”) and the top and bottom asymptotes of the dose-response curve. DRS can be calculated as follows: […]
(§2) where y is a continuous function of the variable dose x, a is the maximal response (i.e., the top asymptote of the curve), b is the slope of the curve, c is the IC50 (i.e., half-maximal inhibitory concentration), and d is the minimal response (i.e., the bottom asymptote of the curve). Other examples of metrics include those output by sigmoidal and Hill slide functions that, like DRS, incorporate multiple aspects of the dose-response curve into a continuous function.
(§3) Total cell viability was measured for each cancer cell line using an Adenosine TriPhosphate (“ATP”) assay, and more specifically an ATP-based luminescence assay (i.e., CellTiter Glo). Each cancer drug was screened at multiple concentrations ranging from one nanomolar (nM) to ten micromolar (UM) in order to generate a dose-response curve and calculate a drug response score (“DRS”) for each cancer cell line. The DRS was calculated as a continuous function of multiple parameters of the non-linear dose-response curve, including the slope at the half-maximal effective concentration (also called “EC50”) and the top and bottom asymptotes of the dose-response curve. […] After total cell viability was measured and DRS was calculated, the DRS of each cancer cell line in the pool was deconvolved for each cancer drug.
(§4) DRS for these anchor cell lines are bolded and italicized. Anchors can be identified based on frequency of the cell lines in pools with high DRS versus low DRS. At a high level, an anchor is predicted to be the cell line with the lowest individual DRS. In order to deconvolute individual cell line DRS values from pool DRS values, the anchor can start with an assumed DRS value of zero. Each pool can then be expressed as a polynomial of variables (cell lines in the pool) and constants (DRS value of the pool). The DRS value of each cell line can then be solved for using the anchor value and overlapping polynomial expressions. When multiple values are calculated for the final target solved from the polynomials, then the anchor has a non-zero value that can be determined based on the difference in the calculated value of the final target.
(§5) Each pool represented a co-culture of three cell lines (“Target Compression”).

Experiment [2] relates to SUP-B15. The experiment can be described thus: ATP-based luminescence cell viability (CellTiter Glo), drug response score, SUP-B15. Further details: scale not given here.
Description: as §1, §2, §3, §4, §5

Experiment [3] deals with MOLT-4. The experiment can be described thus: ATP-based luminescence cell viability (CellTiter Glo), drug response score, MOLT-4. The following applies: MOLT-4, screened individually (Compress: None).
Description: as §1, §2
Total cell viability was measured for each cancer cell line using an Adenosine TriPhosphate (“ATP”) assay, and more specifically an ATP-based luminescence assay (i.e., CellTiter Glo). […] The DRS was calculated as a continuous function of multiple parameters of the non-linear dose-response curve, including the slope at the half-maximal effective concentration (also called “EC50”) and the top and bottom asymptotes of the dose-response curve. […] After total cell viability was measured and DRS was calculated, the DRS of each cancer cell line in the pool was deconvolved for each cancer drug.
DRS for these anchor cell lines are bolded and italicized. […] Each pool can then be expressed as a polynomial of variables (cell lines in the pool) and constants (DRS value of the pool). […] When multiple values are calculated for the final target solved from the polynomials, then the anchor has a non-zero value that can be determined based on the difference in the calculated value of the final target. […]

Experiment [4] relates to JURKAT. The experiment can be described thus: ATP-based luminescence cell viability (CellTiter Glo), drug response score, JURKAT. The following applies: Target compression.
Description: as §1, §2, §3, §4, §5

The test system of experiment [5] is CCRF-CFM. As to the kind of experiment: ATP-based luminescence cell viability (CellTiter Glo), drug response score, CCRF-CFM. Further details: scale not given here. The following applies: for DRS from deconvolution: Sample compression, 5 Pick 3 pools; for drug response score (DRS): screened individually (Compress: None). On the technique in general: Cellular ATP, detected with luciferase, serves as a proxy for viable cell number.

Experiment [6] has as its system CCRF-HSB2. The experiment can be described thus: ATP-based luminescence cell viability (CellTiter Glo), drug response score, CCRF-HSB2. The following applies: CCRF-HSB2, screened individually (Compress: None).
Experiment [7] relates to MOLT-4. As to the kind of experiment: ATP-based luminescence cell viability (CellTiter Glo), drug response score, MOLT-4.
[8] abbreviates: SUP-B15, Sample compression, 5 Pick 3 pools.
Where [9] appears, read: SUP-B15, Target compression, 5 Pick 3 pools.
Where [10] appears, read: SUP-B15, Target compression, 6 Pick 3 pools.
[11] abbreviates: SUP-B15, Target compression, 7 Pick 3 pools.
The mark [12] stands for this setting: MOLT-4, Sample compression, 5 Pick 3 pools.
[13] abbreviates: MOLT-4, Target compression, 5 Pick 3 pools.
Setting [14] is: MOLT-4, Target compression, 6 Pick 3 pools.
[15] abbreviates: MOLT-4, Target compression, 7 Pick 3 pools.

In the case of `C=CC(=O)Nc1cc(Nc2nccc(-c3cn(C)c4ccccc34)n2)c(OC)cc1N(C)CCN(C)C` [Osimertinib], the “DRS, REH, None” value in experiment [1] came to 2.01.

As for `Cc1[nH]c2ccccc2c1CCNCc1ccc(/C=C/C(=O)NO)cc1` [Panobinostat], the DRS from deconvolution in experiment [1] (5 Pick 3 pools) was found to be 12.12; in experiment [1] (6 Pick 3 pools) it was 12.62; in experiment [1] (7 Pick 3 pools) it was 12.90; in experiment [2] (setting [8]), 25.45; in experiment [2] (setting [9]), 21.44; in experiment [2] (setting [10]), 22.36. Further, the DRS from deconvolution in experiment [2] (setting [11]) is 21.78; in experiment [4] (6 Pick 3 pools), 14.37; in experiment [4] (7 Pick 3 pools) it was 13.23; in experiment [5] it was 18.07; in experiment [7] (setting [12]), 14.56; in experiment [7] (setting [13]), 15.32. The DRS from deconvolution in experiment [7] (setting [14]) came out at 15.84; in experiment [7] (setting [15]), 14.94. The figures for the “drug response score (DRS)” value in experiment [3], in experiment [5] and in experiment [6] were 15.10, 17.50 and 17.40, respectively.

Turning to `COc1cc2ncnc(Nc3ccc(F)c(Cl)c3)c2cc1OCCCN1CCOCC1` [Gefitinib], the “DRS, REH, None” value in experiment [1] came out at 3.15.

Regarding `COc1c(OCCCN2CCOCC2)ccc2c1N=C(NC(=O)c1cnc(N)nc1)N1CCN=C21` [Copanlisib], the DRS from deconvolution in experiment [1] (5 Pick 3 pools) was determined as 12.96; in experiment [1] (6 Pick 3 pools), 13.28; in experiment [1] (7 Pick 3 pools), 12.09; in experiment [2] (setting [8]), 1.80; in experiment [2] (setting [9]), 1.98; in experiment [2] (setting [10]), 3.00. For the same compound, the DRS from deconvolution in experiment [2] (setting [11]) is recorded as 1.91; in experiment [4] (6 Pick 3 pools) it was 0.00; in experiment [4] (7 Pick 3 pools) it was 2.30; in experiment [5], 15.72; in experiment [7] (setting [12]), 12.24; in experiment [7] (setting [13]) it was 11.02. Moreover, the DRS from deconvolution is reported as 8.72 in experiment [7] (setting [14]) and 9.83 in experiment [7] (setting [15]). Moreover, the “drug response score (DRS)” value was 9.44 in experiment [3], 15.14 in experiment [5] and 6.94 in experiment [6].

Consider `N#Cc1ccnc(N2C(=O)CC[C@H]2C(=O)N(c2cncc(F)c2)[C@H](C(=O)NC2CC(F)(F)C2)c2ccccc2Cl)c1` [Ivosidenib], for which the DRS from deconvolution in experiment [1] (5 Pick 3 pools) is 0.53; in experiment [1] (6 Pick 3 pools) it was 0.58; in experiment [1] (7 Pick 3 pools), 0.49; in experiment [2] (setting [8]) it was 0.09; in experiment [2] (setting [9]), 0.00; in experiment [2] (setting [10]), 0.00. Moreover, the DRS from deconvolution in experiment [2] (setting [11]) is on record as 0.00; in experiment [4] (6 Pick 3 pools) it was 0.84; in experiment [4] (7 Pick 3 pools) it was 0.70; in experiment [5] it was 0.99; in experiment [7] (setting [12]) it was 0.06; in experiment [7] (setting [13]), 0.21. In addition, the DRS from deconvolution worked out at 0.30 in experiment [7] (setting [14]) and 0.22 in experiment [7] (setting [15]). Moreover, the “drug response score (DRS)” value is 0.20 in experiment [3], 1.00 in experiment [5] and 1.60 in experiment [6].

`CC1(C)CCC(CN2CCN(c3ccc(C(=O)NS(=O)(=O)c4ccc(NCC5CCOCC5)c([N+](=O)[O-])c4)c(Oc4cnc5[nH]ccc5c4)c3)CC2)=C(c2ccc(Cl)cc2)C1` [Venetoclax]: the DRS from deconvolution in experiment [1] (5 Pick 3 pools) was determined as 1.56; in experiment [1] (6 Pick 3 pools), 3.18; in experiment [1] (7 Pick 3 pools), 1.88; in experiment [2] (setting [8]) it was 37.02; in experiment [2] (setting [9]) it was 37.99; in experiment [2] (setting [10]) it was 37.35. Further, the DRS from deconvolution in experiment [2] (setting [11]) was determined as 35.04; in experiment [4] (6 Pick 3 pools), 0.00; in experiment [4] (7 Pick 3 pools), 1.88; in experiment [5] it was 0.50; in experiment [7] (setting [12]) it was 1.26; in experiment [7] (setting [13]), 0.87. Besides, the DRS from deconvolution in experiment [7] (setting [14]) stood at 2.79; in experiment [7] (setting [15]) it was 2.98. Besides, the “drug response score (DRS)” value in experiment [3] is 2.90; in experiment [5] it was 1.10; in experiment [6] it was 0.00.
